Tests used:
Conditions in all cases: 72 h
BV-173 = tested on: BV-173
In short: (§1)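 Fifteen myeloid leukaemia lines were incubated for 72 h at 37 °C with 5% CO2 across five tenfold doses from 1 to 10,000 nM, in duplicate. ATP luminescence was normalised to vehicle and to a positive control at 10 µM and fitted with a four-parameter log-logistic model. The IC50 came from these dose–response fits.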

HEL = tested on: HEL
In short: as §1

HL-60 = tested on: HL-60
In short: as §1

K-562 = tested on: K-562
In short: as §1

KCL-22 = tested on: KCL-22
In short: as §1

KG-1 = tested on: KG-1
In short: as §1

KU-812 = tested on: KU-812
In short: as §1

LAMA-84 = tested on: LAMA-84
In short: as §1

ML-2 = tested on: ML-2
In short: as §1

MOLM-13 = tested on: MOLM-13
In short: as §1

Mono-Mac-6 = tested on: Mono-Mac-6
In short: as §1

NOMO-1 = tested on: NOMO-1
In short: as §1

SHI-1 = tested on: SHI-1
In short: as §1

THP-1 = tested on: THP-1
In short: as §1

[1] = tested on: myeloid leukemia patient primary cells Pat.10; experiment: cell viability (% survival relative to DMSO control); higher = less cytotoxic
In short: (§2)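 Thawed, Ficoll-purified mononuclear cells from AML or CML patients in RPMI 1640 with 10% FBS were seeded at 10,000 cells/well on 384-well plates pre-printed with 70 compounds at five tenfold concentrations, 1–10,000 nM, in duplicate, for 72 h. Viability was read by CellTiter-Glo and normalised to DMSO and 10 μM proteasome-inhibitor wells. Where given, area under the curve came from four-parameter log-logistic fits (drc, PharmacoGx R packages).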

[2] = tested on: myeloid leukemia patient primary cells Pat.11; experiment: as above
In short: as §2

[3] = tested on: myeloid leukemia patient primary cells Pat.12; experiment: as above
In short: as §2

[4] = tested on: myeloid leukemia patient primary cells Pat.13; experiment: as above
In short: as §2

[5] = tested on: myeloid leukemia patient primary cells Pat.14; experiment: as above
In short: as §2

[6] = tested on: myeloid leukemia patient primary cells Pat.15; experiment: as above
In short: as §2

[7] = tested on: myeloid leukemia patient primary cells Pat.1; experiment: as above
In short: as §2

[8] = tested on: myeloid leukemia patient primary cells Pat.2; experiment: as above
In short: as §2

[9] = tested on: myeloid leukemia patient primary cells Pat.3; experiment: as above
In short: as §2

[10] = tested on: myeloid leukemia patient primary cells Pat.4; experiment: as above
In short: as §2

[11] = tested on: myeloid leukemia patient primary cells Pat.5; experiment: as above
In short: as §2

[12] = tested on: myeloid leukemia patient primary cells Pat.6; experiment: as above
In short: as §2

[13] = tested on: myeloid leukemia patient primary cells Pat.7; experiment: as above
In short: as §2

[14] = tested on: myeloid leukemia patient primary cells Pat.8; experiment: as above
In short: as §2

[15] = tested on: myeloid leukemia patient primary cells Pat.9; experiment: as above
In short: as §2

[16] = tested on: myeloid leukemia patient primary cells Pat.3; experiment: area under dose-response curve (viability, 1 nM-10 uM) (fraction (0-1)); higher = more sensitive
Experimental: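 AUC (0–1, higher = more sensitive) of the 5-point dose–response (1 nM–10 µM, 72 h, CellTiter-Glo) in primary AML/CML patient mononuclear cells. 0.030103 is the floor for inactive compounds.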

O=C(Cc1cccc(OC(F)(F)F)c1)Nc1ccc(CCCCc2nnc(NC(=O)Cc3ccccn3)s2)nn1 [CB-839]
Conditions | IC50 (cell viability) [nM] | area under dose-response curve
BV-173 | 118 | –
HEL | > 10000 | –
HL-60 | 637 | –
K-562 | > 10000 | –
KCL-22 | 822 | –
KG-1 | 638 | –
KU-812 | > 10000 | –
LAMA-84 | 9930 | –
ML-2 | > 10000 | –
MOLM-13 | > 10000 | –
Mono-Mac-6 | > 10000 | –
NOMO-1 | > 10000 | –
SHI-1 | > 10000 | –
THP-1 | > 10000 | –
[16] | – | 0.702

cell viability [%]
Conditions | 1 nM | 10 nM | 100 nM | 1000 nM | 10000 nM
[1] | 52.5 | 47.9 | 24.4 | 44.8 | 68.9
[2] | 94.1 | 88.4 | 85.1 | 74.3 | 90.7
[3] | 86.8 | 89.6 | 88 | 80.1 | 99.4
[4] | 85.3 | 88.9 | 69 | 64.6 | 84
[5] | 75.6 | 69.4 | 39.7 | 41.4 | 78.6
[6] | 92.4 | 89.2 | 73.2 | 40.2 | 36.6
[7] | 84.7 | 81.3 | 46.7 | 56.4 | 59.1
[8] | 86.8 | 91.3 | 78.1 | 87 | 88.3
[9] | 67.7 | 39.5 | 11.1 | 9.36 | 14.5
[10] | 92 | 91.5 | 57.4 | 61 | 75.4
[11] | 17.1 | 53.9 | 2.39 | 5.69 | 19.5
[12] | 91.7 | 94.9 | 79.1 | 84.9 | 90.9
[13] | 58.6 | 74.7 | 6.64 | 21.2 | 38.3
[14] | 82.7 | 86.7 | 76.8 | 87.8 | 81
[15] | 62.2 | 35.3 | 1.99 | 7.13 | 14.1

C=C1NC(=O)c2cc(CN(C)c3ccc(C(=O)N[C@@H](CCC(=O)O)C(=O)O)s3)ccc2N1 [Raltitrexed]
Conditions | IC50 (cell viability) [nM] | area under dose-response curve
BV-173 | 52.4 | –
HEL | 37.6 | –
HL-60 | 422 | –
K-562 | 201 | –
KCL-22 | 69.8 | –
KG-1 | > 10000 | –
KU-812 | 56 | –
LAMA-84 | 42.8 | –
ML-2 | 122 | –
MOLM-13 | 47.9 | –
Mono-Mac-6 | 45.2 | –
NOMO-1 | 82.9 | –
SHI-1 | 562 | –
THP-1 | 193 | –
[16] | – | 0.324

cell viability [%]
Conditions | 1 nM | 10 nM | 100 nM | 1000 nM | 10000 nM
[1] | 54.5 | 74.6 | 96.5 | > 100 | 89.9
[2] | 93.9 | 97.3 | 99.3 | 97.4 | 99.2
[3] | 86.9 | 96.9 | > 100 | 95.9 | 98.6
[4] | > 100 | 85.4 | > 100 | 92.6 | 95.5
[5] | 71 | 94.5 | > 100 | 90.2 | 92.1
[6] | 81.4 | 90 | 89.2 | 95.1 | > 100
[7] | 79.1 | 96.9 | 99.9 | 93.7 | > 100
[8] | 95.5 | 95 | > 100 | 99.7 | 98.5
[9] | 81.1 | > 100 | 58.5 | 38.7 | 58.7
[10] | 80.7 | > 100 | 94.1 | 97.6 | > 100
[11] | 43.3 | 90.4 | > 100 | 87 | 92.7
[12] | 90.3 | 98.1 | > 100 | > 100 | > 100
[13] | 64.8 | > 100 | 97.1 | 85.1 | > 100
[14] | 90.8 | 85.5 | 87.2 | 87.3 | > 100
[15] | 40.5 | 84 | 81.9 | 54.5 | 72.8

O=c1[nH]c(=O)n([C@H]2C[C@H](O)[C@@H](CO)O2)cc1I [Idoxuridine]
Conditions | IC50 (cell viability) [nM] | area under dose-response curve
BV-173 | 464 | –
HEL | 1470 | –
HL-60 | > 10000 | –
K-562 | 4340 | –
KCL-22 | 755 | –
KG-1 | > 10000 | –
KU-812 | > 10000 | –
LAMA-84 | 5590 | –
ML-2 | 2510 | –
MOLM-13 | 4760 | –
Mono-Mac-6 | 6630 | –
NOMO-1 | > 10000 | –
SHI-1 | > 10000 | –
THP-1 | > 10000 | –
[16] | – | < 0.0301

cell viability [%]
Conditions | 1 nM | 10 nM | 100 nM | 1000 nM | 10000 nM
[1] | 76.4 | 55.7 | 61.4 | 41.6 | > 100
[2] | > 100 | 95.9 | 96.4 | 90.7 | > 100
[3] | 95.6 | 95.6 | 99 | 87.3 | 99.1
[4] | 91 | 84.4 | 83.4 | 74.8 | 91.9
[5] | 82.1 | 75.7 | 92.2 | 58.6 | > 100
[6] | 92.5 | 93.5 | 93.7 | 90.3 | 94.7
[7] | 84.3 | 81.5 | 95 | 74.3 | 95.4
[8] | > 100 | 90 | 94.9 | 84.2 | 98.2
[9] | 19.5 | 71.8 | 81.6 | 83.6 | 95.1
[10] | 99.7 | 82.4 | 89.8 | 68.2 | 93.1
[11] | 45.5 | 10.2 | 87.4 | 17.2 | 46.7
[12] | 97.7 | 97.7 | 99.8 | 83.2 | > 100
[13] | 77.4 | 69.3 | 83.4 | 63 | > 100
[14] | 96.3 | > 100 | 76.2 | 68.1 | 93.1
[15] | 34.8 | 59.9 | 68.1 | 35.5 | 70.3

From the supplement of paper PMC8671470
